Where two headings read alike, the source gives them in different places.
Assays:
[1] = test system: Key Grass and Sedge Weeds as well as Grass Crops; experiment: Post-Emergent Test II: postemergent herbicidal activity, visual rating after 14 d (Table 8); assay type: in vivo; settings: post-emergence, 336 h; for pest or weed control at 35 g/ha: 35 g ai/ha; for pest or weed control at 70 g/ha: 70 g ai/ha; for pest or weed control at 140 g/ha: 140 g ai/ha
In short: (§1)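 Plants were raised in a greenhouse for 7-21 d and treated once at the first or second true leaf stage. Compounds, dissolved in 97:3 acetone:DMSO then diluted into an aqueous acetone/isopropanol/crop oil/Triton X-155 carrier, were applied by overhead track sprayer at 187 L/ha. After 14 d with subirrigation, injury was scored visually from 0 (none) to 100 (complete kill).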

[2] = test system: Key Broadleaf Weed and Crop Species; experiment: Post-Emergent Test II: postemergent herbicidal activity, visual rating after 14 d (Table 7); assay type: in vivo; settings: post-emergence, 336 h; for pest or weed control at 35 g/ha: 35 g ai/ha; for pest or weed control at 70 g/ha: 70 g ai/ha; for pest or weed control at 140 g/ha: 140 g ai/ha
In short: as §1

[3] = barnyardgrass (Echinochloa crus-galli), read-out: Visual Growth Reduction (%) 14 Days After Application, ECHCG
[4] = giant foxtail (Setaria faberi), read-out: Visual Growth Reduction (%) 14 Days After Application, SETFA
[5] = maize, corn (Zea mays), read-out: Visual Growth Reduction (%) 14 Days After Application, ZEAMX
[6] = rice (Oryza sativa), read-out: Visual Growth Reduction (%) 14 Days After Application, ORYSA
[7] = wheat, spring (Triticum aestivum), read-out: Visual Growth Reduction (%) 14 Days After Application, TRZAS
[8] = yellow nutsedge (Cyperus esculentus), read-out: Visual Growth Reduction (%) 14 Days After Application, CYPES
[9] = ABUTH: velvetleaf (Abutilon theophrasti), read-out: Visual Growth Reduction (%) 14 Days After Application ABUTH
[10] = AMARE: redroot pigweed (Amaranthus retroflexus), read-out: Visual Growth Reduction (%) 14 Days After Application AMARE
[11] = BRSNN: oilseed rape, canola (Brassica napus), read-out: Visual Growth Reduction (%) 14 Days After Application BRSNN
[12] = CHEAL: lambsquarters (Chenopodium album), read-out: Visual Growth Reduction (%) 14 Days After Application CHEAL
[13] = EPHHL: wild poinsettia (Euphorbia heterophylla), read-out: Visual Growth Reduction (%) 14 Days After Application EPHHL
[14] = HELAN: sunflower (Helianthus annuus), read-out: Visual Growth Reduction (%) 14 Days After Application HELAN

COc1c(N)nc(-c2ccc(Cl)c3c2OC(F)(F)O3)nc1C(=O)O [Compound 96]
pest or weed control at 35 g/ha [1, 3]: 0 to 29% | pest or weed control at 70 g/ha [1, 3]: 0 to 29% | pest or weed control at 140 g/ha [1, 3]: 0 to 29% | pest or weed control at 35 g/ha [1, 4]: 0 to 29% | pest or weed control at 70 g/ha [1, 4]: 0 to 29% | pest or weed control at 140 g/ha [1, 4]: 0 to 29% | pest or weed control at 35 g/ha [1, 5]: 30 to 44% | pest or weed control at 70 g/ha [1, 5]: 60 to 74% | pest or weed control at 140 g/ha [1, 5]: 60 to 74% | pest or weed control at 35 g/ha [1, 6]: 0 to 29% | pest or weed control at 70 g/ha [1, 6]: 0 to 29% | pest or weed control at 140 g/ha [1, 6]: 0 to 29% | pest or weed control at 35 g/ha [1, 7]: 0 to 29% | pest or weed control at 70 g/ha [1, 7]: 30 to 44% | pest or weed control at 140 g/ha [1, 7]: 45 to 59% | pest or weed control at 35 g/ha [1, 8]: 0 to 29% | pest or weed control at 70 g/ha [1, 8]: 0 to 29% | pest or weed control at 140 g/ha [1, 8]: 0 to 29% | pest or weed control at 35 g/ha [2, 9]: 75 to 84% | pest or weed control at 70 g/ha [2, 9]: 60 to 74% | pest or weed control at 140 g/ha [2, 9]: 85 to 94% | pest or weed control at 35 g/ha [2, 10]: 95 to 100% | pest or weed control at 70 g/ha [2, 10]: 95 to 100% | pest or weed control at 140 g/ha [2, 10]: 95 to 100% | pest or weed control at 35 g/ha [2, 11]: 0 to 29% | pest or weed control at 70 g/ha [2, 11]: 75 to 84% | pest or weed control at 140 g/ha [2, 11]: 85 to 94% | pest or weed control at 35 g/ha [2, 12]: 95 to 100% | pest or weed control at 70 g/ha [2, 12]: 95 to 100% | pest or weed control at 140 g/ha [2, 12]: 95 to 100% | pest or weed control at 35 g/ha [2, 13]: 0 to 29% | pest or weed control at 70 g/ha [2, 13]: 0 to 29% | pest or weed control at 140 g/ha [2, 13]: 0 to 29% | pest or weed control at 35 g/ha [2, 14]: 95 to 100% | pest or weed control at 70 g/ha [2, 14]: 95 to 100% | pest or weed control at 140 g/ha [2, 14]: 95 to 100%

Source: US9149038B2, “4-amino-6-(heterocyclic)picolinates and 6-amino-2-(heterocyclic)pyrimidine-4-carboxylates and their use as herbicides” (Dow AgroSciences LLC, priority 2013, dated 2015)
